Patent EP0421819A1, “Therapeutic nucleosides” (THE WELLCOME FOUNDATION LIMITED, priority 1989, dated 1991)
Entries after “also recorded” stand apart in the source; their conditions may differ.

How the values were obtained:
Assay type in all cases: cell-based
Hepatitis B Virus (HBV) = assay: Antiviral activity against HBV in the HBV producer cell line HepG2 2.2.15 (Dane particle DNA and intracellular replicative intermediates); conditions: for anti-HBV activity: general statement in the description, no concentration given
Experimental: The human HBV producer cell line of HepG2, 2.2 15, described and characterised by Sells et al., PNAS 84:1005, 1987 and J. Virol. […] This cell line was utilised in vitro to identify compounds with anti-HBV activity.
To test compounds for antiviral activity, monolayer cultures were treated with compound, 50-200 µM, for ten days. Supernatant media containing extracellular virion DNA (Dane particles), were harvested on days three, six and ten, treated with proteinase K(1 mg/mL) and sodium dodecyl sulfate (1%), and incubated at 50 °C for one hour. DNA was extracted with equal volumes of phenol followed by chloroform and then precipitated by ammonium acetate and propanol. The DNA precipitate was dissolved and collected on nitrocellulose using the procedure of Schieicher and Schuell (S & S, 10 Optical Ave., Keene, NH 03431, Publication #700, 1987), and treated as described by Southern, J. Mol. Biol. 98:503, 1975. Cells were harvested, and the intracellular DNA was obtained after cell lysis with guanidine isothiocyanate. The intracellular DNA was handled in the same manner as the extracellular DNA. After precipitation by ammonium acetate and propanol, the intracellular DNA precipitate was dissolved, cut by restriction endonuclease, Hind III, applied to agarose gel and then treated as described by Southern to determine the quantity of replicative intermediate forms. The antiviral effect of the drug was determined by measuring at least a 100-fold reduction of the amount of Dane particles extruded into the culture and a similar decrease in the intracellular replicative intermediates.

HIV = assay: Activity against HIV infections (general statement, no method given at that place); conditions: general statement in the description
HIV-2 = assay: Anti-HIV activity by the method of Averett (J.Virol.Methods 23, 263-276); conditions: against HIV-2; n=6; read-out: average IC₅₀
Experimental: (§1) Anti-HIV activity was determined by the method of Averett, D.R., J.Virol.Methods, 23 263-276 (1989).

HIV-1 = assay: as above; conditions: against HIV-1; n=7; read-out: average IC₅₀
Experimental: as §1

| SMILES | inhibition of HBV (Hepatitis B Virus (HBV); at 100 µM, monolayer cultures treated for ten days) | anti-HBV activity (Hepatitis B Virus (HBV); listed as Compound 41) | activity against HIV infections (HIV) | IC50 (HIV-2) [µM] | IC50 (HIV-1) [µM] | anti-HBV activity (Hepatitis B Virus (HBV)) |
| --- | --- | --- | --- | --- | --- | --- |
| Nc1nc(NCC2CC2)c2ncn([C@H]3CC[C@@H](CO)O3)c2n1 [Example 42, 2-Amino-6-(cyclopropylmethylamino)purine-9-β-D-2′,3′-dideoxy ribofuranoside] | strong inhibition | surprisingly high; also recorded: exceptionally potent activity | exceptionally potent activity | 13.3 | 17.7 |  |
| Nc1nc(NC2CC2)c2ncn([C@H]3CC[C@@H](CO)O3)c2n1 [Compound 34, 2-Amino-6-cyclopropylaminopurine-9-β-D-2,′3′-dideoxyribofuranoside] |  |  |  |  |  | surprisingly high |
| CCCOc1nc(N)nc2c1ncn2[C@H]1CC[C@@H](CO)O1 [Compound 9, 2-Amino-6-n-propoxypurine-9-β-D-2′,3′-dideoxyribofuranoside] |  |  |  |  |  | surprisingly high |
